This assay addresses T1, IRAK4 (Homo sapiens, UniProt Q9NWZ3).
T1 construct: endogenous in cells; host or cells: THP-1 cells
T1 sequence (Q9NWZ3 1-460): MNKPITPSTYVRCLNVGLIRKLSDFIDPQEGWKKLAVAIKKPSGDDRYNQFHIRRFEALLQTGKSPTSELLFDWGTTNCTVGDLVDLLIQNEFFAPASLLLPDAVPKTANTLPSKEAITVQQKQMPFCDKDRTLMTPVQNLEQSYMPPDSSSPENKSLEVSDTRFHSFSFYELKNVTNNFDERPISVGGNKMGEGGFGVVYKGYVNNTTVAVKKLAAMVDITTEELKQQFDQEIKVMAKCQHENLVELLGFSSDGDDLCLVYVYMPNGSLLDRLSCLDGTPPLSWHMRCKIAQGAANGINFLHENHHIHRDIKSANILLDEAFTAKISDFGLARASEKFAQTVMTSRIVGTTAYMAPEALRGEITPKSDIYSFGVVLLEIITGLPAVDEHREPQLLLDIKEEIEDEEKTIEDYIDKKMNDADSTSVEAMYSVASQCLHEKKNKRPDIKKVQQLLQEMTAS
Description: LVL THP1 HTRF (THP1 Homogeneous Time Resolved Fluorescence). Particulars: THP1 cells, 18 h incubation with compound; for DC50: read-out: LVL THP1 HTRF EC50. In kind it is cell-based. The gist of the method: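 THP-1 cells in phenol red-free RPMI with 10% FBS were dosed with compound (20 nL in DMSO) for 18 h at 37° C. After 2 h lysis, IRAK4 was detected with anti-IRAK4-d2/anti-IRAK4-K HTRF antibodies for 18 h at room temperature and read at 665/615 nm; a parallel CTG plate was run.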
A general note: TR-FRET usually uses a lanthanide donor and a delayed reading to cut background.

Molecules are shown by their SMILES. Where a name gives a salt, the structure may show the parent alone.

In the case of `CC(F)(F)CNc1cc(-n2ncc3cc(C#N)cnc32)ncc1-n1cc(C2CCC(CCN3CCN(c4ccc(C5CCC(=O)NC5=O)cc4)CC3)CC2)nn1` (stereo not shown) [P-169], the “LVL THP1 HTRF YMIN” value came to 3.0%. As to `CC(F)(F)CNc1cc(-n2ncc3cc(C#N)cnc32)ncc1-n1cc([C@H]2CC[C@H](CCN3CCN(c4ccc(C5CCC(=O)NC5=O)cc4)CC3)CC2)nn1` (stereo partly shown) [P-169], the DC50 was found to be 26 nM. In the case of `Cc1cc(C2CCC(=O)NC2=O)ccc1N1CCN(CC[C@H]2CC[C@H](NC(=O)c3cnc(-n4ncc5cc(C#N)c(N)nc54)cc3N[C@H](C)C#N)CC2)C[C@H]1C` (stereo partly shown) [P-170], the “LVL THP1 HTRF YMIN” value was found to be 0.9% and the DC50 amounted to 14 nM. `Cc1cc(N2CCN(CC[C@H]3CC[C@H](NC(=O)c4cnc(-n5ncc6cc(C#N)c(N)nc65)cc4N[C@H](C)C#N)CC3)C[C@H]2C)ccc1C1CCC(=O)NC1=O` (stereo partly shown) [P-171]: the “LVL THP1 HTRF YMIN” value worked out at 1.2% and the DC50 amounted to 23 nM. On the same counts, the results for `Cc1cc(N2CCN(CC[C@H]3CC[C@H](NC(=O)c4cnc(-n5ncc6cc(C#N)c(N)nc65)cc4N[C@H](C)C#N)CC3)C[C@H]2C)ccc1C1CCC(=O)NC1=O` (stereo partly shown) [P-172] are 1.1% and 10 nM. In the case of `C[C@H](C#N)Nc1cc(-n2ncc3cc(C#N)c(N)nc32)ncc1C(=O)N[C@H]1CC[C@H](CCN2CCN(c3ccc(C4CCC(=O)NC4=O)c(F)c3)[C@H](C)C2)CC1` (stereo partly shown) [P-173], the “LVL THP1 HTRF YMIN” value came to 0.7% and the DC50 turned out to be 11 nM. Consider `C[C@H](C#N)Nc1cc(-n2ncc3cc(C#N)cnc32)ncc1C(=O)N[C@H]1CC[C@H](CCN2CC3CC2CN3c2ccc(C3CCC(=O)NC3=O)cc2)CC1` (stereo partly shown) [P-179], for which the “LVL THP1 HTRF YMIN” value is listed as 2.0% and the DC50 worked out at 65 nM. Regarding `COc1nc2c(cnn2-c2cc(N[C@H](C)C#N)c(C(=O)N[C@H]3CC[C@H](CCN4CCN(c5ccc(C6CCC(=O)NC6=O)cc5)CC4)CC3)cn2)cc1C#N` (stereo partly shown) [P-184], the “LVL THP1 HTRF YMIN” value stood at 1.3% and the DC50 worked out at 51 nM. On the same counts, the results for `CC(F)(F)CNc1cc(-n2ncc3cc(C#N)c(N)nc32)ncc1C(=O)N[C@H]1CC[C@H](CCN2CCN(c3ccc(C4CCC(=O)NC4=O)cc3)CC2)CC1` (stereo partly shown) [P-185] are 1.5% and 17 nM. Consider `C[C@H](C#N)Nc1cc(-n2ncc3cc(C#N)c(N)nc32)ncc1C(=O)N[C@H]1CC[C@H](CCN2CCN(c3ccc(C4CCC(=O)NC4=O)c(Cl)c3)[C@H](C)C2)CC1` (stereo partly shown) [P-187], for which the “LVL THP1 HTRF YMIN” value is listed as 1.4% and the DC50 came out at 20 nM. The matching figures for `CNc1nc2c(cnn2-c2cc(N[C@H](C)C#N)c(C(=O)N[C@H]3CC[C@H](CCN4CCN(c5ccc(C6CCC(=O)NC6=O)cc5)CC4)CC3)cn2)cc1C#N` (stereo partly shown) [P-188]: 1.1% and 6 nM.

Take `C[C@H](C#N)Nc1cc(-n2ncc3cc(C#N)cnc32)ncc1C(=O)N[C@H]1CC[C@H](CCN2C3COCC2CN(c2ccc(C4CCC(=O)NC4=O)cc2)C3)CC1` (stereo partly shown) [P-189]: the “LVL THP1 HTRF YMIN” value is reported as 25.3% and the DC50 was determined as 54 nM.

As to `C[C@H](C#N)Nc1cc(-n2ncc3cc(C#N)cnc32)ncc1C(=O)N[C@H]1CC[C@H](CCN2CCN(c3ccc(C4CCC(=O)NC4=O)cc3)C3(COC3)C2)CC1` (stereo partly shown) [P-190], the “LVL THP1 HTRF YMIN” value was 24.9% and the DC50 is 158 nM. In the case of `C[C@H](C#N)Nc1cc(-n2ncc3cc(C#N)cnc32)ncc1C(=O)N[C@H]1CC[C@H](CCN2CCN(c3ccc(C4CCC(=O)NC4=O)cc3)C3(CC3)C2)CC1` (stereo partly shown) [P-191], the “LVL THP1 HTRF YMIN” value is on record as 20.4% and the DC50 came out at 1790 nM. For the molecule `CCc1nc2c(cnn2-c2cc(N[C@H](C)C#N)c(C(=O)N[C@H]3CC[C@H](CCN4CCN(c5ccc(C6CCC(=O)NC6=O)cc5)CC4)CC3)cn2)cc1C#N` (stereo partly shown) [P-192], the “LVL THP1 HTRF YMIN” value is on record as 1.0% and the DC50 turned out to be 58 nM. On the same counts, the results for `C[C@H](C#N)Nc1cc(-n2ncc3cc(C#N)cnc32)ncc1C(=O)N[C@H]1CC[C@H](CCN2CC3COCC(C2)N3c2ccc(C3CCC(=O)NC3=O)cc2)CC1` (stereo partly shown) [P-194] are 39.8% and 4040 nM. As for `C[C@H](C#N)Nc1cc(-n2ncc3cc(C#N)cnc32)ncc1-c1cn(C2CCC(CCN3CCN(c4ccc(C5CCC(=O)NC5=O)cc4)CC3)CC2)nn1` (stereo partly shown) [P-195], the “LVL THP1 HTRF YMIN” value was 2.2%. On to `C[C@H](C#N)Nc1cc(-n2ncc3cc(C#N)cnc32)ncc1-c1cn([C@H]2CC[C@H](CCN3CCN(c4ccc(C5CCC(=O)NC5=O)cc4)CC3)CC2)nn1` (stereo partly shown) [P-195], for which the DC50 was 6 nM. For the molecule `C[C@H](C#N)Nc1cc(-n2ncc3cc(C#N)cnc32)ncc1-c1cc(C2CCC(CCN3CCN(c4ccc(C5CCC(=O)NC5=O)cc4)CC3)CC2)on1` (stereo partly shown) [P-196], the “LVL THP1 HTRF YMIN” value worked out at 3.5%. Turning to `C[C@H](C#N)Nc1cc(-n2ncc3cc(C#N)cnc32)ncc1-c1cc([C@H]2CC[C@H](CCN3CCN(c4ccc(C5CCC(=O)NC5=O)cc4)CC3)CC2)on1` (stereo partly shown) [P-196], the DC50 was 167 nM. Turning to `CC(C#N)Nc1cc(-n2ncc3cc(C#N)cnc32)ncc1-n1cc(C2CCC(C(F)CN3CCN(c4ccc(C5CCC(=O)NC5=O)cc4)CC3)CC2)nn1` (stereo not shown) [P-198], the “LVL THP1 HTRF YMIN” value worked out at 1.2% and the DC50 came to 10 nM. As to `C[C@H](C#N)Nc1cc(-n2ncc3cc(C#N)cnc32)ncc1-n1cc([C@H]2CC[C@H](C(Cl)CN3CCN(c4ccc(C5CCC(=O)NC5=O)cc4)CC3)CC2)nn1` (stereo partly drawn) [P-199, 1-(5-(4-((1R,4R)-4-((1R)-1-chloro-2-(4-(4-(2,6-dioxopiperidin-3-yl)phenyl)piperazin-1-yl)ethyl)cyclohexyl)-1H-1,2,3-triazol-1-yl)-4-(((R)-1-cyanoethyl)amino)pyridin-2-yl)-1H-pyrazolo[3,4-b]pyridine-5-carbonitrile.TFA], the “LVL THP1 HTRF YMIN” value was 2.7% and the DC50 was 2 nM. The matching figures for `C[C@H](C#N)Nc1cc(-n2ccc3cc(C#N)c(N)nc32)ncc1C(=O)N[C@H]1CC[C@H](CCN2CCN(c3ccc(C4CCC(=O)NC4=O)cc3)CC2)CC1` (stereo partly shown) [P-200]: 1.5% and 13 nM. As to `C[C@H](C#N)Nc1cc(-n2ncc3cc(C#N)cnc32)ncc1-n1cc(C2CCC(CCN3[C@@H](C)CN(c4ccc(C5CCC(=O)NC5=O)cc4)C[C@@H]3C)CC2)nn1` (stereo partly shown) [P-201], the “LVL THP1 HTRF YMIN” value is listed as 0.6% and the DC50 was determined as 2 nM. With `C[C@H](C#N)Nc1cc(-n2ncc3cc(C#N)cnc32)ncc1-n1cc(C23CCC(CCN4CCN(c5ccc(C6CCC(=O)NC6=O)cc5)CC4)(CC2)C3)nn1` (stereo partly drawn) [P-202, 1-(4-(((R)-1-cyanoethyl)amino)-5-(4-(4-(2-(4-(4-(2,6-dioxopiperidin-3-yl)phenyl)piperazin-1-yl)ethyl)bicyclo[2.2.1]heptan-1-yl)-1H-1,2,3-triazol-1-yl)pyridin-2-yl)-1H-pyrazolo[3,4-b]pyridine-5-carbonitrile, TFA], the “LVL THP1 HTRF YMIN” value worked out at 1.4% and the DC50 stood at 10 nM. `C[C@H](C#N)Nc1cc(-n2ncc3cc(C#N)cnc32)ncc1-c1cnn(C2CCC(CCN3CCN(c4ccc(C5CCC(=O)NC5=O)cc4)CC3)CC2)c1` (stereo partly shown) [P-203]: the “LVL THP1 HTRF YMIN” value was found to be 3.0%. For `C[C@H](C#N)Nc1cc(-n2ncc3cc(C#N)cnc32)ncc1-c1cnn([C@H]2CC[C@H](CCN3CCN(c4ccc(C5CCC(=O)NC5=O)cc4)CC3)CC2)c1` (stereo partly shown) [P-203], the DC50 amounted to 11 nM. With `C[C@@H](C#N)Nc1cc(-n2ncc3cc(C#N)cnc32)ncc1-n1cc(C2CCC(CCN3CCN(c4ccc(C5CCC(=O)NC5=O)cc4)CC3)CC2)nn1` (stereo partly shown) [P-205], the “LVL THP1 HTRF YMIN” value is listed as 1.1%. As to `C[C@@H](C#N)Nc1cc(-n2ncc3cc(C#N)cnc32)ncc1-n1cc([C@H]2CC[C@H](CCN3CCN(c4ccc(C5CCC(=O)NC5=O)cc4)CC3)CC2)nn1` (stereo partly shown) [P-205], the DC50 worked out at 30 nM. With `C[C@H](C#N)Nc1cc(-n2ncc3cc(C#N)cnc32)ncc1-n1cc(C2CCC(CCN3C[C@H](C)N(c4ccc(C5CCC(=O)NC5=O)cc4)C[C@H]3C)CC2)nn1` (stereo partly shown) [P-206], the “LVL THP1 HTRF YMIN” value came to 1.1% and the DC50 was determined as 2 nM.

Take `C[C@H](C#N)Nc1cc(-n2ncc3cc(C#N)c(N)nc32)ncc1-n1cc(C2CCC(CCN3C[C@@H](C)N(c4ccc(C5CCC(=O)NC5=O)cc4)C[C@@H]3C)CC2)nn1` (stereo partly shown) [P-207]: the “LVL THP1 HTRF YMIN” value worked out at 1.3% and the DC50 is above 5000 nM. On the same counts, the results for `C[C@H](C#N)Nc1cc(-n2ncc3cc(C#N)cnc32)ncc1-n1cc(C2CCC(CCN3C[C@@H](C)N(c4ccc(C5CCC(=O)NC5=O)cc4)C[C@@H]3C)CC2)nn1` (stereo partly shown) [P-208] are 1.4% and 9 nM. For `C[C@H](C#N)Nc1cc(-n2ncc3cc(C#N)cnc32)ncc1-n1cc(C2CCC(CCN3CCC(c4ccc(C5CCC(=O)NC5=O)cc4)CC3)CC2)nn1` (stereo partly shown) [P-209], the “LVL THP1 HTRF YMIN” value is given as 0.9%. As to `C[C@H](C#N)Nc1cc(-n2ncc3cc(C#N)cnc32)ncc1-n1cc([C@H]2CC[C@H](CCN3CCC(c4ccc(C5CCC(=O)NC5=O)cc4)CC3)CC2)nn1` (stereo partly shown) [P-209], the DC50 stood at 1 nM.

For `C[C@H](C#N)Nc1cc(-n2ncc3cc(C#N)cnc32)ncc1-n1cc(C2CCC(CCN3CCN(c4ccc([C@]5(C)CCC(=O)NC5=O)cc4)CC3)CC2)nn1` (stereo partly shown) [P-210], the “LVL THP1 HTRF YMIN” value was above 95.0% and the DC50 came out at 15 nM.
